Measured values: patent publication US10829473B2, “Modulators of the cystic fibrosis transmembrane conductance regulator protein and methods of use” (AbbVie Overseas S.Á.R.L., priority 2017, dated 2020)
Where two headings read alike, the source gives them in different places. Marks after values point to notes of the source that are not given here.

Target: T1, F508delCFTR (Homo sapiens, UniProt P13569, DEL508-508)
T1 construct: expressed in transfected cells; host or cells: CFBE41o- human lung derived epithelial cells (CFBE41o-F508delCFTR-HRP), doxycycline-inducible
Test: Cell Surface Expression-Horse Radish Peroxidase (CSE-HRP) Assay;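 for EC50 (with co-corrector): co-corrector chromenyl benzoic acid corrector at 2 or 3 µM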;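 for Maximum % activity (without co-corrector): % of on-plate positive control chromenyl benzoic acid corrector at 2 or 3 µM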
Type: cell-based
Details: for Maximum % activity (with co-corrector) / Emax: maximum at any tested concentration; for Emax: read-out: Maximum % activity (without co-corrector)
In short: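 Corrector compounds were given as 8-point 3-fold series from 20 or 30 μM, with or without a 2 μM co-corrector, for 18-24 h at 33 °C. Surface HRP was read by luminol luminescence as % of positive control; variable-Hill-slope sigmoidal fitting gave EC50 from triplicate plates.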

[1] = test compound alone, without co-corrector, read-out: EC50 (without co-corrector)
[2] = with co-corrector, read-out: EC50 (with co-corrector)
[3] = test compound with co-corrector
[4] = test compound with co-corrector, read-out: EC50 (with co-corrector)
[5] = test compound without co-corrector
[6] = test compound without co-corrector, read-out: EC50 (without co-corrector)

T1 sequence (P13569 with tags, fused parts or gaps DEL508-508): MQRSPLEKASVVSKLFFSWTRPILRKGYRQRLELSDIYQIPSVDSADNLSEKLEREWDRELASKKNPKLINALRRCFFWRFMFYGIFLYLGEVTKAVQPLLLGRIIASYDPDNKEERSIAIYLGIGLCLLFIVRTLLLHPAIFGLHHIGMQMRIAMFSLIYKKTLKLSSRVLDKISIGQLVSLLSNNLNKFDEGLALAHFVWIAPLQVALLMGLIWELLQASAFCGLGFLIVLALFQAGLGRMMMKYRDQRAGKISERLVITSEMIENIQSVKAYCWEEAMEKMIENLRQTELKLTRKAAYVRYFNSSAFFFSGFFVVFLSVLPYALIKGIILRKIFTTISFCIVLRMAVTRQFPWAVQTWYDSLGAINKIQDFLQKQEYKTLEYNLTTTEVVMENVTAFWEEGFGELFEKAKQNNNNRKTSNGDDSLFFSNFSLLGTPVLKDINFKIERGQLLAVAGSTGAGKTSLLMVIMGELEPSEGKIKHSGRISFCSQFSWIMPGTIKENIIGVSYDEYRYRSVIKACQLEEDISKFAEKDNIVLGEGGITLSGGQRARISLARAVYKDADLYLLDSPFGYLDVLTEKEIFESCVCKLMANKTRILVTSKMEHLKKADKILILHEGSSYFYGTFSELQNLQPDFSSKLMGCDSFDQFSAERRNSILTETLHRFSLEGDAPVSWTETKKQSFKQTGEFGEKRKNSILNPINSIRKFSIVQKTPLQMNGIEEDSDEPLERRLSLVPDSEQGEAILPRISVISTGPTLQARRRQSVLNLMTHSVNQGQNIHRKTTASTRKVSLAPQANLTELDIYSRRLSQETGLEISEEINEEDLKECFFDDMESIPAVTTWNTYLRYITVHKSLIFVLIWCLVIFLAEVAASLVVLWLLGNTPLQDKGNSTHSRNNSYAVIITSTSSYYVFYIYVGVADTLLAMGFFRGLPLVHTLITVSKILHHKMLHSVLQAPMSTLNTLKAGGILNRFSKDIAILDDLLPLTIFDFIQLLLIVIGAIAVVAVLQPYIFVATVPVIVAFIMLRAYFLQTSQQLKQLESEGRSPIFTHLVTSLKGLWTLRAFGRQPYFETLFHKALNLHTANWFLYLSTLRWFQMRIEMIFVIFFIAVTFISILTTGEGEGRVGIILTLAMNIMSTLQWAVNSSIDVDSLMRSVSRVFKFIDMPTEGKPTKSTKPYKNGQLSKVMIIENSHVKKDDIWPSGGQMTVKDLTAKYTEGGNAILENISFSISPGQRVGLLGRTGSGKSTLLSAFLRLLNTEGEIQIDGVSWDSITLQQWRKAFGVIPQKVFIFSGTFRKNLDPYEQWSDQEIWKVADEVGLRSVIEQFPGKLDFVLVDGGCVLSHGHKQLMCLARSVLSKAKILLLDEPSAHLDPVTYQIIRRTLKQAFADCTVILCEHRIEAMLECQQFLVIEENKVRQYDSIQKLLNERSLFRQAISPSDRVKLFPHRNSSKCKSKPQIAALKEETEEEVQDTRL

SMILES	EC50 [1] [µM]	Maximum % activity (with co-corrector) (with co-corrector)	EC50 [2] [µM]	Emax (without co-corrector) [%]	Maximum % activity (with co-corrector) [3]	EC50 [4] [µM]	Emax [5] [%]	EC50 [6] [µM]	EC50 (without co-corrector) [5]
O=C(NS(=O)(=O)c1cccc2ccccc12)C1(c2ccc(C(F)(F)F)nc2C2CCC2)CC1 [Example GI-11, 1-[2-cyclobutyl-6-(trifluoromethyl)pyridin-3-yl]-N-(naphthalene-1-sulfonyl)cyclopropane-1-carboxamide]	< 3	+++ (≥350)	< 3	> 150					
CC(C)Oc1ccc(C2CCC2)nc1C1(C(=O)NS(=O)(=O)c2cccc3ncccc23)CC1 [Example GI-39, 1-{6-cyclobutyl-3-[(propan-2-yl)oxy]pyridin-2-yl}-N-(quinoline-5-sulfonyl)cyclopropane-1-carboxamide]					+++ (≥350)	< 3	> 150	< 3	
CN(C)c1ncc(C(F)(F)F)cc1C1(C(=O)NS(=O)(=O)c2cccc3ncccc23)CC1 [Example I-57, 1-[2-(dimethylamino)-5-(trifluoromethyl)pyridin-3-yl]-N-(quinoline-5-sulfonyl)cyclopropane-1-carboxamide]	< 3	+++ (≥350)	< 3	> 150					
COc1cccc(C(C)C)c1C1(C(=O)NS(=O)(=O)c2cccc3ncccc23)CC1 [Example I-50, 1-[2-methoxy-6-(propan-2-yl)phenyl]-N-(quinoline-5-sulfonyl)cyclopropane-1-carboxamide]	< 3	+++ (≥350)	< 3	> 150					
CCn1nc(C2(C(=O)NS(=O)(=O)c3cccc4ccccc34)CC2)cc1C [II-5]	3 to 10	++ (≥150 and <350)	3 to 10	< 50					
COc1cnc(OCC(C)C)c(C2(C(=O)NS(=O)(=O)c3cccc4nc(C)ccc34)CC2)c1 [Example GI-79, 1-[5-methoxy-2-(2-methylpropoxy)pyridin-3-yl]-N-(2-methylquinoline-5-sulfonyl)cyclopropane-1-carboxamide]					+++ (≥350)	< 3	> 150	< 3	
CC(C)Oc1cnc(OC(C)C)c(C2(C(=O)NS(=O)(=O)c3cccc4ncccc34)CC2)c1 [Example GI-65, 1-{2,5-bis[(propan-2-yl)oxy]pyridin-3-yl}-N-(quinoline-5-sulfonyl)cyclopropane-1-carboxamide]					+++ (≥350)	< 3	> 150	< 3	
Cc1ccc2c(S(=O)(=O)NC(=O)C3(c4cc(C5CCC5)cnc4OCC4CC4)CC3)cccc2n1 [Example GI-110, 1-[5-cyclobutyl-2-(cyclopropylmethoxy)pyridin-3-yl]-N-(2-methylquinoline-5-sulfonyl)cyclopropane-1-carboxamide]					+++ (≥350)	< 3	> 150	< 3	
COc1cc(OC(C)C)c(C2(C(=O)NS(=O)(=O)c3cccc4nc(C)ccc34)CC2)cn1 [Example GI-18, 1-{6-methoxy-4-[(propan-2-yl)oxy]pyridin-3-yl}-N-(2-methylquinoline-5-sulfonyl)cyclopropane-1-carboxamide]	3 to 10	+++ (≥350)	< 3	> 150					
COc1ncc(C2CCC2)c(C)c1C1(C(=O)NS(=O)(=O)c2cccc3ccc(C)nc23)CC1 [II-44]	< 3	+++ (≥350)	< 3	> 150					
CCOc1ncc(CC)cc1C1(C(=O)NS(=O)(=O)c2cccc3nc(C)ccc23)CC1 [Example GI-117, 1-(2-ethoxy-5-ethylpyridin-3-yl)-N-(2-methylquinoline-5-sulfonyl)cyclopropane-1-carboxamide]					+++ (≥350)	< 3	> 150	< 3	
COc1ncc(C2CCC2)c(C)c1C1(C(=O)NS(=O)(=O)c2cccc3c2ccn3C)CC1 [II-41]	3 to 10	+++ (≥350)	< 3	50 to 150					
CCOc1ccc(C)cc1C1(C(=O)NS(=O)(=O)c2cccc3[nH]ccc23)CC1 [II-85]	< 3	+++ (≥350)	< 3	> 150					
COc1cc(C)ccc1C1(C(=O)NS(=O)(=O)c2cccc3ncccc23)CC1 [II-63]	< 3	+++ (≥350)	< 3	> 150					
COc1ccc(C)c(C2(C(=O)NS(=O)(=O)c3cccc4ncccc34)CCN(C)CC2)c1 [Example III-94, 4-(5-methoxy-2-methylphenyl)-1-methyl-N-(quinoline-5-sulfonyl)piperidine-4-carboxamide]	> 10	+ (<150)	> 10	< 50					
O=C(NS(=O)(=O)c1cccc2ncccc12)C1(c2cc(C3CCC3)cnc2OCC2CC2)CC1 [Example GI-100, 1-[5-cyclobutyl-2-(cyclopropylmethoxy)pyridin-3-yl]-N-(quinoline-5-sulfonyl)cyclopropane-1-carboxamide]					+++ (≥350)	< 3	> 150	< 3	
COc1cnc(OCC(C)C)c(C2(C(=O)NS(=O)(=O)c3cccc4[nH]ccc34)CC2)c1 [Example GI-78, N-(1H-indole-4-sulfonyl)-1-[5-methoxy-2-(2-methylpropoxy)pyridin-3-yl]cyclopropane-1-carboxamide]					+++ (≥350)	< 3	> 150	< 3	

Continued, values first:

EC50 [1] [µM]	Maximum % activity (with co-corrector) (with co-corrector)	EC50 [2] [µM]	Emax (without co-corrector) [%]	Maximum % activity (with co-corrector) [3]	EC50 [4] [µM]	Emax [5] [%]	EC50 [6] [µM]	EC50 (without co-corrector) [5]	SMILES
				+++ (≥350)	3 to 10	> 150	3 to 10		COc1cc(C)c(C2(C(=O)NS(=O)(=O)c3cccc4ccccc34)CC2)cn1 [GII-22, 1-(6-methoxy-4-methylpyridin-3-yl)-N-(naphthalene-1-sulfonyl)cyclopropane-1-carboxamide]
> 10	+ (<150)	> 10	< 50						CCCS(=O)(=O)NC(=O)C1(c2ccc(Cl)cc2Cl)CC1 [Example III-107, 1-(2,4-dichlorophenyl)-N-(propane-1-sulfonyl)cyclopropane-1-carboxamide]
				++ (≥150 and <350)	3 to 10	50 to 150		++^a	COCCOc1ncc(OC)cc1C1(C(=O)NS(=O)(=O)c2cccc3[nH]ccc23)CC1 [GII-43, N-(1H-indole-4-siilfonyl)-1-[5-methoxy-2-(2-methoxyethoxy)pyridin-3-yl]cyclopropane-1-carboxamide]
				++ (≥150 and <350)	3 to 10	50 to 150		++^a	COCCOc1ncc(OC)cc1C1(C(=O)NS(=O)(=O)c2cccc3nc(C)ccc23)CC1 [GII-42, 1-[5-methoxy-2-(2-methoxyethoxy)pyridin-3-yl]-N-(2-methylquinoline-5-sulfonyl)cyclopropane-1-carboxamide]
				+ (<150)	> 10	< 50	> 10		COc1ncc(C2(C(=O)NS(=O)(=O)c3cccc4ncccc34)CC2)c(OC)n1 [GIII-24]
				++ (≥150 and <350)	> 10	< 50	> 10		O=C(NS(=O)(=O)c1cccc2c1CCCN2)C1(c2ccc(C(F)(F)F)nc2Cl)CC1 [GIII-28]
				+++ (≥350)	3 to 10	> 150	3 to 10		CCc1cnc(N(C)C)c(C2(C(=O)NS(=O)(=O)c3cccc4[nH]ccc34)CC2)c1 [GII-49, 1-[2-(dimethylamino)-5-ethylpyridin-3-yl]-N-(1H-indole-4-sulfonyl)cyclopropane-1-carboxamide]
> 10	+ (<150)	> 10	< 50						O=C(NS(=O)(=O)c1ccc(-n2cccn2)cc1)C1(c2cccc(Cl)c2)CC1 [Example III-73, 1-(3-chlorophenyl)-N-[4-(1H-pyrazol-1-yl)benzene-1-sulfonyl]cyclopropane-1-carboxamide]
3 to 10	+++ (≥350)	3 to 10	50 to 150						COc1ccccc1C1(C(=O)NS(=O)(=O)c2ccccc2C)CC1 [Example III-85, 1-(2-methoxyphenyl)-N-(2-methylbenzene-1-sulfonyl)cyclopropane-1-carboxamide]
> 10	++ (≥150 and <350)	3 to 10	< 50						O=C(NS(=O)(=O)c1ccccc1)C1(c2ccc(F)cc2)CC1 [Example III-31, N-(benzenesulfonyl)-1-(4-fluorophenyl)cyclopropane-1-carboxamide]
> 10	+ (<150)	> 10	< 50						O=C(NS(=O)(=O)Cc1ccccc1)C1(c2cccc(Cl)c2)CC1 [Example III-109, 1-(3-chlorophenyl)-N-(phenylmethanesulfonyl)cyclopropane-1-carboxamide]
